The values below come from patent US20240383852A1, “ANTI-VIRAL COMPOUNDS” (INFEX Therapeutics Limited, priority 2021, published 2024).

Structures can show the parent of a compound that is named as a salt. Where two headings read alike, the source gives them in different places.

The test system of data set [1] is human Hep G2 cells (ATCC HB-8065). In words: Cytotoxicity in Hep G2 cells (CellTiter-Glo). It counts as cell-based.
Another data set has as its target T1, SARS-CoV-2 PLpro (Severe acute respiratory syndrome coronavirus 2, UniProt P0DTD1).
T1 construct: containing 60 nM papain-like protease
In words: biochemical.

A further data set deals with SARS-CoV-2. In words: Anti-viral potency in VERO E6 cells (cytopathic viral activity, crystal violet). It counts as cell-based. Particulars: Severe acute respiratory syndrome coronavirus 2, Vero C1008, 48 h, read-out: SARS-COV-2 EC50 (μM).
Where [2] appears, read: Hep G2 cells, 100 μM test article, 24-hour exposure.
Where [3] appears, read: 60 nM papain-like protease, 50 μM Z-RLRGG-AMC, pH 7.5, 37° C., read-out: SARS-CoV-2 PLpro IC50.

In general, IC50 refers to the point on the concentration scale where inhibition reaches its midpoint. In general, EC50 refers to the concentration at which the effect is half-maximal. Regarding `COc1ccc([C@@H](C)NC(=O)c2cc(N3C[C@H]4C[C@@H]3CN4C)ccc2C)cc1-c1cnn(C)c1` [Example 227, N-[(1R)-1-[4-Methoxy-3-(1-methylpyrazol-4-yl)phenyl]ethyl]-2-methyl-5-[(1R,4R)-5-methyl-2,5-diazabicyclo[2.2.1]heptan-2-yl]benzamide], in data set [1] (setting [2]), the “% Cell Viability” value is on record as 89.9%. The concentration for half-maximal inhibition (IC50) on SARS-CoV-2 PLpro (setting [3]) is under 2 µM. Also, in the data set on SARS-CoV-2, the EC50 was under 5 µM.
In the same order, the values of `Cc1ccc(N2CCN(C)CC2)cc1C(=O)N[C@H](C)c1cccc(-c2cc(C(=O)N(C)C)n(C)c2)c1` [Example 102, N,N,1-Trimethyl-4-[3-[(1R)-1-[[2-methyl-5-(4-methylpiperazin-1-yl)benzoyl]amino]ethyl]phenyl]pyrrole-2-carboxamide] are 75.9%, under 2 µM and under 5 µM.
In the case of `COc1ccc([C@@H](C)NC(=O)c2cc(N3C[C@H]4CC[C@@H](C3)N4C)ccc2C)cc1OC` [Example 11, N-[(1R)-1-(3,4-Dimethoxyphenyl)ethyl]-2-methyl-5-[(1R,5S)-8-methyl-3,8-diazabicyclo[3.2.1]octan-3-yl]benzamide], the “% Cell Viability” value in data set [1] (human, 24 h, 100 μM) stood at 95.6%. The IC50 against SARS-CoV-2 PLpro is under 2 µM. Further, the EC50 with SARS-CoV-2 was under 5 µM.
On to `COc1ccc([C@@H](C)NC(=O)c2cc(N3CCN(C)CC3)ccc2C)cc1OCC1CC1` [Example 296, N-[(1R)-1-[3-(Cyclopropylmethoxy)-4-methoxy-phenyl]ethyl]-2-methyl-5-(4-methylpiperazin-1-yl)benzamide], for which, in data set [1] (setting [2]), the “% Cell Viability” value worked out at 76.1%. For the same compound, the IC50 on SARS-CoV-2 PLpro (setting [3]) is under 2 µM. Moreover, the concentration for a half-maximal effect (EC50) with SARS-CoV-2 is under 15 µM.
For `COc1ccc([C@@H](C)NC(=O)c2cc(N3CCN(C)CC3)ccc2C)cc1-c1cn(C)nc1C` [Example 212, N-[(1R)-1-[3-(1,3-Dimethylpyrazol-4-yl)-4-methoxy-phenyl]ethyl]-2-methyl-5-(4-methylpiperazin-1-yl)benzamide], in that order: 96.8%, under 2 µM and under 5 µM.
In the same order, the values of `COc1ccc([C@@H](C)NC(=O)c2cc(C3CCN(C)CC3)ccc2C)cc1-c1cnn(C)c1` [Example 300, N-[(1R)-1-[4-Methoxy-3-(1-methylpyrazol-4-yl)phenyl]ethyl]-2-methyl-5-(1-methyl-4-piperidyl)benzamide] are 74.7%, under 2 µM and under 5 µM.
Regarding `COc1cc(-c2cn(C)nc2C)cc([C@@H](C)NC(=O)c2cc(N3CCN(C)CC3)ccc2C)c1` [Example 233, N-[(1R)-1-[3-(1,3-Dimethylpyrazol-4-yl)-5-methoxy-phenyl]ethyl]-2-methyl-5-(4-methylpiperazin-1-yl)benzamide], the “% Cell Viability” value in data set [1] (setting [2]) came out at 88.9%. Moreover, the 50% inhibitory concentration (IC50) at SARS-CoV-2 PLpro (setting [3]) is under 2 µM. In addition, in the data set on SARS-CoV-2, the EC50 is under 5 µM.
For `COc1cc(-c2cnn(C)c2)cc([C@@H](C)NC(=O)c2cc(N3CCN(CC4CC4)CC3)ccc2C)c1` [Example 245, 5-[4-(Cyclopropylmethyl)piperazin-1-yl]-N-[(1R)-1-[3-methoxy-5-(1-methylpyrazol-4-yl)phenyl]ethyl]-2-methyl-benzamide], in that order: 58.4%, under 2 µM and under 5 µM.
In the same order, the values of `COc1ccc([C@@H](C)NC(=O)c2cc(N3CC4CN(C)CC4C3)ccc2C)cc1OC` (stereo partly drawn) [Example 9, N-[(1R)-1-(3,4-Dimethoxyphenyl)ethyl]-2-methyl-5-(2-methyl-1,3,3a,4,6,6a-hexahydropyrrolo[3,4-c]pyrrol-5-yl)benzamide] are 96.5%, under 5 µM and under 15 µM.
In the case of `COc1cc([C@@H](C)NC(=O)c2cc(N3CCN(C)CC3)ccc2C)ccc1OCCN1CCOCC1` [Example 293, N-[(1R)-1-[3-Methoxy-4-(2-morpholinoethoxy)phenyl]ethyl]-2-methyl-5-(4-methylpiperazin-1-yl)benzamide], in data set [1] (setting [2]), the “% Cell Viability” value is given as 102.3%. In addition, the IC50 on SARS-CoV-2 PLpro (setting [3]) was under 2 µM. Besides, in the data set with SARS-CoV-2, the EC50 is under 5 µM.
For `COc1ccc([C@@H](C)NC(=O)c2cc(N3CC4CNCC4C3)ccc2C)cc1-c1cnn(C)c1` (stereo partly drawn) [Example 261, 5-(2,3,3a,4,6,6a-Hexahydro-1H-pyrrolo[3,4-c]pyrrol-5-yl)-N-[(1R)-1-[4-methoxy-3-(1-methylpyrazol-4-yl)phenyl]ethyl]-2-methyl-benzamide], in that order: 49.2%, under 2 µM and under 15 µM.
For `COCCOc1ccc([C@@H](C)NC(=O)c2cc(N3CCN(C)CC3)ccc2C)cc1-c1cnn(C)c1` [Example 280, N-[(1R)-1-[4-(2-Methoxyethoxy)-3-(1-methylpyrazol-4-yl)phenyl]ethyl]-2-methyl-5-(4-methylpiperazin-1-yl)benzamide], in that order: 76.7%, under 2 µM and under 5 µM.
As for `COc1cc(-c2cnn(C)c2)cc([C@@H](C)NC(=O)c2cc(N3C[C@H]4CC[C@@H](C3)N4)ccc2C)c1` [Example 272, 5-[(1R,5S)-3,8-diazabicyclo[3.2.1]octan-3-yl]-N-[(1R)-1-[3-methoxy-5-(1-methyl-1H-pyrazol-4-yl)phenyl]ethyl]-2-methylbenzamide], the “% Cell Viability” value in data set [1] (human, 24 h, 100 μM) is reported as 74.3%. This compound gave an IC50 at SARS-CoV-2 PLpro of under 2 µM. For the same compound, the EC50 in the data set on SARS-CoV-2 was under 5 µM.
Consider `COc1cc(-c2cnn(C)c2)cc([C@@H](C)NC(=O)c2cc(N3C[C@H]4C[C@@H]3CN4C)ccc2C)c1` [Example 244, N-[(1R)-1-[3-Methoxy-5-(1-methylpyrazol-4-yl)phenyl]ethyl]-2-methyl-5-[(1R,4R)-5-methyl-2,5-diazabicyclo[2.2.1]heptan-2-yl]benzamide], for which the “% Cell Viability” value in data set [1] (setting [2]) stood at 67.1%. Besides, the IC50 on SARS-CoV-2 PLpro (setting [3]) is under 2 µM. The EC50 with SARS-CoV-2 is under 5 µM.
For `COc1ccc([C@@H](C)NC(=O)c2cc(N3CCN(C)CC3)ccc2C)cc1-c1cnn(C)c1` [Example 205, N-[(1R)-1-[4-Methoxy-3-(1-methylpyrazol-4-yl)phenyl]ethyl]-2-methyl-5-(4-methylpiperazin-1-yl)benzamide], in that order: 105.8%, under 2 µM and under 5 µM.
Regarding `COc1ccc([C@@H](C)NC(=O)c2cc(N3C[C@H]4CC[C@@H](C3)N4)ccc2C)cc1-c1cnn(C)c1` [Example 266, 5-[(1S,5R)-3,8-Diazabicyclo[3.2.1]octan-3-yl]-N-[(1R)-1-[4-methoxy-3-(1-methylpyrazol-4-yl)phenyl]ethyl]-2-methyl-benzamide hydrochloride salt], the “% Cell Viability” value in data set [1] (human, 24 h, 100 μM) amounted to 61.1%. In addition, the IC50 against SARS-CoV-2 PLpro was under 2 µM. Further, the concentration giving a half-maximal response (EC50) in the data set with SARS-CoV-2 was under 5 µM.
For `Cc1ccc(N2CCN(C)CC2)cc1C(=O)N[C@H](C)c1ccc(F)c(-c2cnn(C)c2)c1` [Example 217, N-[(1R)-1-[4-Fluoro-3-(1-methylpyrazol-4-yl)phenyl]ethyl]-2-methyl-5-(4-methylpiperazin-1-yl)benzamide], the “% Cell Viability” value in data set [1] (setting [2]) was 61.7%. On SARS-CoV-2 PLpro (setting [3]), the IC50 is under 2 µM. In addition, the EC50 in the data set with SARS-CoV-2 was under 5 µM.
Consider `COc1cc(-c2cnn(C)c2)cc([C@@H](C)NC(=O)c2cc(N3CCN(C)CC3)ccc2C)c1` [Example 219, N-[(1R)-1-[3-Methoxy-5-(1-methylpyrazol-4-yl)phenyl]ethyl]-2-methyl-5-(4-methylpiperazin-1-yl)benzamide], for which, on SARS-CoV-2 PLpro (setting [3]), the IC50 was under 2 µM. Besides, the EC50 in the data set with SARS-CoV-2 is under 5 µM.
As for `CNCCN(C)C(=O)c1ccc(-c2cccc([C@@H](C)NC(=O)c3cc(N4CCN(C)CC4)ccc3C)c2)cc1` [Example 75, 2-Methyl-N-[(1R)-1-[3-[4-[methyl-[2-(methylamino)ethyl]carbamoyl]phenyl]phenyl]ethyl]-5-(4-methylpiperazin-1-yl)benzamide], the “% Cell Viability” value in data set [1] (setting [2]) was 123.6%. Besides, the IC50 on SARS-CoV-2 PLpro (setting [3]) is under 2 µM.
As to `Cc1ccc(N2CCN(C)CC2)cc1C(=O)N[C@H](C)c1cccc(-c2ccc(Cl)cc2)c1` [Example 55, N-[(1R)-1-[3-(4-Chlorophenyl)phenyl]ethyl]-2-methyl-5-(4-methylpiperazin-1-yl)benzamide], in data set [1] (setting [2]), the “% Cell Viability” value was determined as 1.0%. In addition, the IC50 on SARS-CoV-2 PLpro (setting [3]) was under 2 µM.
For the compound `COc1ccc([C@@H](C)NC(=O)c2cc(N3CCN(C)CC3)ccc2C)c2ccccc12` [Example 192, N-[(1R)-1-(4-Methoxy-1-naphthyl)ethyl]-2-methyl-5-(4-methylpiperazin-1-yl)benzamide], the “% Cell Viability” value in data set [1] (setting [2]) worked out at 6.3%. Further, at SARS-CoV-2 PLpro (setting [3]), the IC50 was under 2 µM.
For `Cc1ccc(N2CCN(C)CC2)cc1C(=O)N[C@H](C)c1ccc(O)c(-c2cnn(C)c2)c1` [Example 276, N-[(1R)-1-[4-Hydroxy-3-(1-methylpyrazol-4-yl)phenyl]ethyl]-2-methyl-5-(4-methylpiperazin-1-yl)benzamide], in that order: 81.6% and under 2 µM.
Consider `COc1cc(-c2cnn(C)c2)cc([C@@H](C)NC(=O)c2cc(N3CCNC4(CC4)C3)ccc2C)c1` [Example 264, 5-(4,7-Diazaspiro[2.5]octan-7-yl)-N-[(1R)-1-[3-methoxy-5-(1-methylpyrazol-4-yl)phenyl]ethyl]-2-methyl-benzamide], for which the “% Cell Viability” value in data set [1] (setting [2]) was 68.5%. In addition, the IC50 on SARS-CoV-2 PLpro (setting [3]) is under 2 µM.
On to `COc1cccc([C@@H](C)NC(=O)c2cc(N3CCN(C)CC3)ccc2C)c1` [Example 29, N-[(1R)-1-(3-Methoxyphenyl)ethyl]-2-methyl-5-(4-methylpiperazin-1-yl)benzamide], for which, in data set [1] (setting [2]), the “% Cell Viability” value is 100%. For the same compound, at SARS-CoV-2 PLpro (setting [3]), the IC50 is under 5 µM.
